{
  "source": "patent US6596719B1",
  "about": "(Actelio Pharmaceuticals Ltd., priority 1999, dated 2003)",
  "key": {"ETA receptors": {"biological_target": "T1, ETA receptors (Rattus norvegicus, UniProt P26684)", "T1 sequence (P26684 21-426)": "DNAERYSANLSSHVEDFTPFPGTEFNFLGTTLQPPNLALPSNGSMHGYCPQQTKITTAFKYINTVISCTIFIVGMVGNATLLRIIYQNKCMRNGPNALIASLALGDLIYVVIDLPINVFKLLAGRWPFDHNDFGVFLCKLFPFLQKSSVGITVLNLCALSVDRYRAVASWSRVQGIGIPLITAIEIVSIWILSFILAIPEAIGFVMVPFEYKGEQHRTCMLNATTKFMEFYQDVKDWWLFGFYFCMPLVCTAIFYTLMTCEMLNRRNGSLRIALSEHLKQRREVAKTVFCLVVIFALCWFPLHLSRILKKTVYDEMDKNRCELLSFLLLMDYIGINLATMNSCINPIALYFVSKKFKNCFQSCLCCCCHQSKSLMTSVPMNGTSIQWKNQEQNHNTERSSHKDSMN", "experiment": "Inhibition of endothelin-1-induced contractions on isolated rat aortic rings", "conditions": "for pA2 value ETA: rat aortic rings, contraction induced by endothelin-1, 10 min incubation"}, "[1]": {"biological_target": "T2, human recombinant ETB receptors (Homo sapiens, UniProt P24530)", "T2 construct": "expressed in transfected cells; host or cells: CHO cells (microsomal membranes)", "T2 sequence (P24530 27-442)": "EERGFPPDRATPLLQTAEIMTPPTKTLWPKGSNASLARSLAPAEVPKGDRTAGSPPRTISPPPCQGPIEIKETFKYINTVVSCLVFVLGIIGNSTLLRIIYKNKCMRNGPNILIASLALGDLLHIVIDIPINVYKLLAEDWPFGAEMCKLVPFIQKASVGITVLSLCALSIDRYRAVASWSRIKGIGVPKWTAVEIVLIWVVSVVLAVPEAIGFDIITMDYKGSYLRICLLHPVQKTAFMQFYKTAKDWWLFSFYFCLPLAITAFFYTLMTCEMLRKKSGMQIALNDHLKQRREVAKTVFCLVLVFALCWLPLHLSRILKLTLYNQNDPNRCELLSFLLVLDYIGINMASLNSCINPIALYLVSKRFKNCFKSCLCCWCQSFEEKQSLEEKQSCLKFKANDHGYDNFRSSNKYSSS", "experiment": "Inhibition of endothelin binding to membranes from CHO cells carrying human ET receptors (ETB)"}, "[2]": {"biological_target": "T3, human recombinant ETA receptors (Homo sapiens, UniProt P25101)", "T3 construct": "expressed in transfected cells; host or cells: CHO cells (microsomal membranes)", "T3 sequence (P25101 21-427)": "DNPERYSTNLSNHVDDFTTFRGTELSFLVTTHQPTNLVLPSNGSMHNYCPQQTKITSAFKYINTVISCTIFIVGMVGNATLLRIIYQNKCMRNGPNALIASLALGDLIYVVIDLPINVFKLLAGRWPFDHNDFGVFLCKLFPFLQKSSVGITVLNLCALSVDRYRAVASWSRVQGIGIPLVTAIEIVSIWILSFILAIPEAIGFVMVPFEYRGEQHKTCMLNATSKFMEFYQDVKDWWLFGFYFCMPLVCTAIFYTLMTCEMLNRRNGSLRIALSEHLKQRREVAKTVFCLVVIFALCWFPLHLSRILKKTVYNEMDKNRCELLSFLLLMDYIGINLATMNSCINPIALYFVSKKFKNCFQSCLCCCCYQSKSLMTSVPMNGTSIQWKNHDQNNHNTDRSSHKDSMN", "experiment": "Inhibition of endothelin binding to membranes from CHO cells carrying human ET receptors (ETA)"}, "ETB receptors": {"biological_target": "T4, ETB receptors (Rattus norvegicus, UniProt P21451)", "T4 sequence (P21451 27-442)": "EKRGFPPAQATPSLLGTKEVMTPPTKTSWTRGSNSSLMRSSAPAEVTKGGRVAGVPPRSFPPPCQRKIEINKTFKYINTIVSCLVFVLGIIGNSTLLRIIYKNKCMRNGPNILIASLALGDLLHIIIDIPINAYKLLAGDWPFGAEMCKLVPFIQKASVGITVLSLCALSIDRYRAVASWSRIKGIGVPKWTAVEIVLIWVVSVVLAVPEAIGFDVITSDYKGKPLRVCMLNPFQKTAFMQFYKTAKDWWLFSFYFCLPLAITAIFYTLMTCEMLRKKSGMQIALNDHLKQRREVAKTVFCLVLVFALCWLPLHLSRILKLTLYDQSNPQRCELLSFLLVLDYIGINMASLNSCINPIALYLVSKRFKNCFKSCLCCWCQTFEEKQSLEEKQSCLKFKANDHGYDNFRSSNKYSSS", "experiment": "Inhibition of sarafotoxin S6c-induced contractions on isolated rat tracheal rings", "conditions": "for pA2 value ETB: rat tracheal rings, contraction induced by sarafotoxin S6c, 10 min incubation"}, "[3]": {"conditions": "membranes of CHO cells expressing human recombinant ETA receptors, 8 pM [125I]ET-1, 2 h at 20° C."}},
  "note": "Where two headings read alike, the source gives them in different places.",
  "data": [
    {"molecule": "COc1ccccc1Oc1c(NS(=O)(=O)c2ccc(C(C)(C)C)cc2)nc(-c2ncccn2)nc1OCCNS(=O)(=O)c1cccs1", "note": "[Example 7, p-tert.-butyl-N-[6-(ethoxy-2-(2-thiophenesulfonamido))-5-(o-methoxyphenoxy)-2-(2-pyrimidinyl)-4-pyrimidinyl]benzene-sulfonamide]", "values": [
      {"measurement": "pA2 value ETA", "setting": "ETA receptors", "value": 6.08},
      {"measurement": "IC50", "setting": "[1]", "value": 15.8, "unit": "nM"},
      {"measurement": "IC50", "setting": "[2]; [3]", "value": 63.6, "unit": "nM"},
      {"measurement": "pA2 value ETB", "setting": "ETB receptors", "value": 7.15}
    ]},
    {"molecule": "CCCS(=O)(=O)NCCOc1nc(N2CCOCC2)nc(NS(=O)(=O)c2ccc(C)cn2)c1Oc1ccccc1OC", "note": "[Example 59, 5-methyl-N-[6-(2-(1-propanesulfonylamino)-ethoxy)-5-(o-methoxyphenoxy)-2-(N-morpholino)-4-pyrimidinyl]-2-pyridine sulfonamide]", "values": [
      {"measurement": "pA2 value ETA", "setting": "ETA receptors", "value": 6.61},
      {"measurement": "IC50", "setting": "[1]", "value": 189, "unit": "nM"},
      {"measurement": "IC50", "setting": "[2]", "value": 103, "unit": "nM"},
      {"measurement": "pA2 value ETB", "setting": "ETB receptors", "value": 5.58}
    ]},
    {"molecule": "CCS(=O)(=O)NCCOc1nc(N2CCOCC2)nc(NS(=O)(=O)c2ccc(C(C)C)cn2)c1Oc1ccccc1OC", "note": "[Example 61, 5-isopropyl-N-[6-(2-(ethanesulfonylamino)-ethoxy)-5-(o-methoxyphenoxy)-2-(N-morpholino)-4-pyrimidinyl]-2-pyridine sulfonamide]", "values": [
      {"measurement": "pA2 value ETA", "setting": "ETA receptors", "value": 7.02},
      {"measurement": "IC50", "setting": "[1]", "value": 183, "unit": "nM"},
      {"measurement": "IC50", "setting": "[2]", "value": 92, "unit": "nM"},
      {"measurement": "pA2 value ETB", "setting": "ETB receptors", "value": 6.36}
    ]},
    {"molecule": "CCCS(=O)(=O)NCCOc1nc(-c2cc(OC)c(OC)c(OC)c2)nc(NS(=O)(=O)c2ccc(C(C)C)cn2)c1Oc1ccccc1OC", "note": "[Example 16, 5-i.-propyl-N-[6-(ethoxy-2-(1-propanesulfonamido))-5-(o-methoxyphenoxy)-2-(3,4,5-trimethoxyphenyl)-4-pyrimidinyl]pyridine-2-sulfonamide]", "values": [
      {"measurement": "Kb", "setting": "ETA receptors", "value": "> 3160", "unit": "nM"},
      {"measurement": "IC50", "setting": "[1]", "value": 24.5, "unit": "nM"},
      {"measurement": "IC50", "setting": "[2]; [3]", "value": 261, "unit": "nM"},
      {"measurement": "Kb", "setting": "ETB receptors", "value": 34.7, "unit": "nM"}
    ]},
    {"molecule": "COc1ccccc1Oc1c(NS(=O)(=O)c2ccc(C(C)C)cn2)nc(-c2ccncc2)nc1OCCNS(=O)(=O)c1ccc(C)cc1", "note": "[Example 12]", "values": [
      {"measurement": "Kb", "setting": "ETA receptors", "value": 851, "unit": "nM"},
      {"measurement": "IC50", "setting": "[1]", "value": 73.3, "unit": "nM"},
      {"measurement": "IC50", "setting": "[2]", "value": 2120, "unit": "nM"},
      {"measurement": "Kb", "setting": "ETB receptors", "value": 513, "unit": "nM"}
    ]},
    {"molecule": "COc1ccccc1Oc1c(NS(=O)(=O)c2ccc(C(C)C)cn2)nc(-c2ccncc2)nc1OCCNS(=O)(=O)C(C)C", "note": "[Example 10, 5-i.-propyl-N-[6-(ethoxy-2-(2-propanesulfonamido))-5-(o-methoxyphenoxy)-2-(4-pyridyl)-4-pyrimidinyl]pyridine-2-sulfonamide]", "values": [
      {"measurement": "Kb", "setting": "ETA receptors", "value": 186, "unit": "nM"},
      {"measurement": "IC50", "setting": "[1]", "value": 193, "unit": "nM"},
      {"measurement": "IC50", "setting": "[2]", "value": 67.2, "unit": "nM"},
      {"measurement": "Kb", "setting": "ETB receptors", "value": 1260, "unit": "nM"}
    ]}
  ]
}
